# Reference: paper PMC9115881, “Penicillin Derivatives Inhibit the SARS-CoV-2 Main Protease by Reaction with Its Nucleophilic Cysteine” (Journal of Medicinal Chemistry, 2022)
# Entries after “also recorded” stand apart in the source; their conditions may differ.
# Legend:
# SARS-CoV-2 M^pro [1] = target: T1, SARS-CoV-2 M^pro (Severe acute respiratory syndrome coronavirus 2, UniProt P0DTD1); conditions: earlier SPE-MS M^pro assay; cited from earlier work
# SARS-CoV-2 M^pro [2] = target: T1, SARS-CoV-2 M^pro; experiment: biochemical; assay type: biochemical; conditions: for IC50: M^pro […], 37mer substrate 2.0 μM, mean ± SD, n ≥ 2, read-out: IC50
# SARS-CoV-2 M^pro [3] = target: T1, SARS-CoV-2 M^pro; experiment: SPE-MS M^pro inhibition assay, 11mer peptide substrate; assay type: biochemical
# SARS-CoV-2 M^pro [4] = target: T1, SARS-CoV-2 M^pro; experiment: Protein-observed M^pro assay (SPE-MS), covalent modification; assay type: binding; conditions: M^pro 2.0 μM, inhibitor 11 or 33 μM, 45 min
# Description: Selected compounds were tested for reaction with M^pro using protein-observed MS to inform on their mechanism of inhibition (Figure 2). Initially, M^pro was incubated with a ∼6-fold excess of the penicillin sulfone ester for 45 min and then analyzed by MS. […] When the inhibitor concentration was increased to ∼17-fold to account for the possibility of modifying all 12 M^pro cysteine or other residues, only low levels of a second covalent M^pro modification by the inhibitors were observed (Figure 2A–C). No evidence for fragmentation of the inhibitors once bound to M^pro was accrued.
# Solutions of the inhibitors (100% DMSO) were dry-dispensed across 384-well polypropylene assay plates (Greiner) (for 11 or 33 μM top concentrations) using an ECHO 550 acoustic dispenser (Labcyte). DMSO was used as a negative control. Each reaction was performed in technical duplicates. The enzyme mixture (50 μL/well), containing M^pro (2.0 μM) in buffer (20 mM HEPES, pH 7.5), was dispensed across the penicillin-containing 384-well assay plates with a multidrop dispenser (Thermo Fischer Scientific). The reaction mixture was incubated for 45 min at 20 °C under an ambient atmosphere prior to analysis by SPE-MS.
# MS analyses were performed using a RapidFire RF 365 high-throughput sampling robot (Agilent) attached to an iFunnel Agilent 6550 accurate mass Q-TOF mass spectrometer using a C4 cartridge and the same parameters as described above, with the exception of the gas temperature that was reduced to 225 °C. Protein spectra were deconvoluted for the m/z range 850–1350 Da, with a resolution of 2 Da and with a 10–60 kDa cutoff using the MaxEnt1 function in Agilent MassHunter Version 7. The deconvoluted files were extracted as csv files, sorted using Enthought Canopy GUI, and normalized and plotted using GraphPad Prism 9.
# [5] = target: T2, active site (Cys145) TPCK-blocked M^pro (Severe acute respiratory syndrome coronavirus 2, UniProt P0DTD1); experiment: Protein-observed M^pro assay after preincubation with TPCK; assay type: binding, SARS-CoV-2; conditions: M^pro 2.0 μM preincubated with TPCK 10 μM for 180 min, then inhibitor 60 min
# T2 construct: employing SARS-CoV-2 M^pro (2.0 μM); made in house
# SARS-CoV-2 M^pro [6] = target: T1, SARS-CoV-2 M^pro; experiment: Cocrystallization with M^pro, crystal structure; conditions: 2.0 Å resolution, PDB 7Z59
# Source text: To investigate the mode of M^pro inhibition by penicillin derivatives, we carried out crystallographic studies and obtained a structure of M^pro complexed with a penicillin sulfone 20e-derived ligand following cocrystallization (C2 space group, 2.0 Å resolution; Supporting Information Figure S7). The structure was solved by molecular replacement using a reported M^pro structure (PDB ID: 6YB7([29])) as a search model. The overall fold of the structure is similar to those previously reported for M^pro (RMSD = 0.41 Å for M^pro complexed with PF-07321332 (8, nirmatrelvir; PDB ID: 7VH8);[68] Supporting Information Figure S7).
# A frozen SARS-CoV-2 M^pro solution was thawed and diluted to 6 mg/mL (using 20 mM HEPES, pH 7.5, 50 mM NaCl). β-Lactam 20e was added to the protein solution to a final concentration of 10 mM; the mixture was incubated for 2 h at ambient temperature prior to dispensing the plates. The drop composition was: 0.15 μL protein–ligand solution, 0.3 μL 11%v/v PEG 4000, 0.1 M MES, pH 6.5, and 0.05 μL M^pro crystal seed stock. A M^pro crystal seed stock was prepared by crushing M^pro crystals with a pipette tip, suspending them in 30% PEG 4000, 5%v/v DMSO, 0.1 M MES pH 6.5, and vortexing for 60 s with approximately 10 glass beads (1.0 mm diameter, BioSpec products). The reservoir solution was: 11%v/v PEG 4K, 5%v/v DMSO, 0.1 M MES, pH 6.5. […]
# [7] = Table 3, compounds 25c, 25g: 11mer peptide as substrate, M^pro […], substrate 2.0 μM, read-out: IC50
compound,measurement,setting,value
"CC1(C)[C@H](C(=O)O)N2C(=O)C[C@H]2S1(=O)=O [Compound 33, sulbactam, reference compound]","M^pro inhibition, reported result in words",SARS-CoV-2 M^pro [1],inability of sulbactam to inhibit M^pro
"CC1(C)[C@H](C(=O)OCc2ccccc2)N2C(=O)[C@@H](NC(=O)COc3ccccc3)[C@H]2S1(=O)=O [Compound 10, penicillin V sulfone benzyl ester]",IC50,"SARS-CoV-2 M^pro [2]; Table 1, 15 min preincubation",6.6 ± 2.7 µM
same,IC50,SARS-CoV-2 M^pro [2]; Table 3,6.6 ± 2.7 µM
same,IC50,"SARS-CoV-2 M^pro [3]; Table S1, M^pro 0.15 μM, TSAVLQ/SGFRK-NH2 2.0 μM, technical duplicates n = 2, mean ± SD, read-out: IC50 [μM] (11mer peptide)",8.7 ± 0.2 µM
same,covalent modification of M^pro by protein-observed MS,SARS-CoV-2 M^pro [4],covalent reaction with Cys145; also recorded: covalent reaction with a single nucleophilic protein residue; also recorded: clear evidence for the covalent reaction
same,covalent reaction with TPCK-pretreated M^pro by protein-observed MS,[5],reaction is ablated by pretreatment of M^pro with the active site binding inhibitor TPCK; also recorded: do not efficiently react covalently
same,"M^pro inhibition, reported result in words",SARS-CoV-2 M^pro [1],inhibits M^pro by reaction with the active site cysteine residue
CCN1CCC(NC(=O)N[C@@H](C(=O)N[C@@H]2C(=O)N3[C@@H](C(=O)OCc4ccccc4)C(C)(C)S(=O)(=O)[C@H]23)c2ccccc2)C(=O)C1=O (some centres unmarked) [Compound 25g],IC50,SARS-CoV-2 M^pro [3]; [7],> 50 µM
CC1(C)[C@H](C(=O)OCc2ccc(F)cc2F)N2C(=O)[C@@H](NC(=O)COc3ccccc3)[C@H]2S1(=O)=O [Compound 20e],covalent modification seen in the crystal structure,SARS-CoV-2 M^pro [6],active site Cys145 S-acylation
Cc1onc(-c2c(Cl)cccc2Cl)c1C(=O)N[C@@H]1C(=O)N2[C@@H](C(=O)OCc3ccccc3)C(C)(C)S(=O)(=O)[C@H]12 [Compound 25c],IC50,SARS-CoV-2 M^pro [3]; [7],> 50 µM
C#CCOC(=O)[C@@H]1N2C(=O)[C@@H](NC(=O)COc3ccccc3)[C@H]2S(=O)(=O)C1(C)C [Compound 20q],IC50,SARS-CoV-2 M^pro [2]; Table 2,3 ± 0.4 µM
same,covalent modification of M^pro by protein-observed MS,SARS-CoV-2 M^pro [4],covalent reaction with Cys145; also recorded: covalent reaction with a single nucleophilic protein residue; also recorded: clear evidence for the covalent reaction
same,covalent reaction with TPCK-pretreated M^pro by protein-observed MS,[5],reaction is ablated by pretreatment of M^pro with the active site binding inhibitor TPCK; also recorded: do not efficiently react covalently
"CC1(C)[C@H](C(=O)OCc2ccccc2)N2C(=O)[C@@H](NC(=O)Cc3ccccc3)[C@H]2S1(=O)=O [Compound 11, penicillin G sulfone benzyl ester]","M^pro inhibition, result in words",SARS-CoV-2 M^pro [2]; SPE-MS inhibition assay,did not inhibit M^pro
same,IC50,SARS-CoV-2 M^pro [2]; Table 3,> 50 µM
same,"M^pro inhibition, reported result in words",SARS-CoV-2 M^pro [1],inactive
"CC1(C)[C@H](C(=O)OCc2ccccc2)N2C(=O)[C@H](NC(=O)COc3ccccc3)[C@H]2[S@@+]1[O-] [Compound 15, (6S)-penicillin V (S)-sulfoxide benzyl ester]",IC50,"SARS-CoV-2 M^pro [3]; Table 1, compounds 15, 16: 11mer peptide as substrate, M^pro […], substrate 2.0 μM, read-out: IC50",> 50 µM
